Measured values published in patent US9932320B2 (BRISTOL-MYERS SQUIBB COMPANY, priority 2014, dated 2018).

Each compound was assayed against T1, AAK1 (GST-Xa-hAAK1) (Homo sapiens, UniProt Q2M2I8) (assay: AAK1 Kinase Assay (Caliper LabChip, fluoresceinated peptide substrate)). Settings: AAK1 functional potency; class symbols; read-out: IC50 (nM), functional potency as IC50 ranges.
T1 construct: made in house
Format: biochemical
Protocol: The assays were performed in U-bottom 384-well plates. The final assay volume was 30 μl prepared from 15 μl additions of enzyme and substrates (fluoresceinated peptide (5-FAM)-Aha-KEEQSQITSQVTGQIGWR-NH2 and ATP) and test compounds in assay buffer (10 mM Tris-HCL pH 7.4, 10 mM MgCl2, 0.01% Tween-20 and 1.0 mM DTT). The reactions were initiated by the combination of bacterially expressed, GST-Xa-hAAK1 with substrates and test compounds. The reactions were incubated at room temperature for 3 hours and terminated by adding 60 μl of 35 mM EDTA buffer to each sample. The reactions were analyzed on the Caliper LabChip 3000 (Caliper, Hopkinton, Mass.) by electrophoretic separation of the fluorescent substrate and phosphorylated product. Inhibition data were calculated by comparison to EDTA quenched control reactions for 100% inhibition and vehicle-only reactions for 0% inhibition. The final concentration of reagents in the assays are ATP, 22 μM; (5-FAM)-Aha-KEEQSQITSQVTGQIGWR-NH2, 1.5 μM; GST-Xa-hAAK1, 3.5 nM; and DMSO, 1.6%. Dose response curves were generated to determine the concentration required inhibiting 50% of kinase activity (IC50). Compounds were dissolved at 10 mM in dimethylsulfoxide (DMSO) and evaluated at eleven concentrations. IC50 values were derived by non-linear regression analysis.

T1 sequence (Q2M2I8 whole entry): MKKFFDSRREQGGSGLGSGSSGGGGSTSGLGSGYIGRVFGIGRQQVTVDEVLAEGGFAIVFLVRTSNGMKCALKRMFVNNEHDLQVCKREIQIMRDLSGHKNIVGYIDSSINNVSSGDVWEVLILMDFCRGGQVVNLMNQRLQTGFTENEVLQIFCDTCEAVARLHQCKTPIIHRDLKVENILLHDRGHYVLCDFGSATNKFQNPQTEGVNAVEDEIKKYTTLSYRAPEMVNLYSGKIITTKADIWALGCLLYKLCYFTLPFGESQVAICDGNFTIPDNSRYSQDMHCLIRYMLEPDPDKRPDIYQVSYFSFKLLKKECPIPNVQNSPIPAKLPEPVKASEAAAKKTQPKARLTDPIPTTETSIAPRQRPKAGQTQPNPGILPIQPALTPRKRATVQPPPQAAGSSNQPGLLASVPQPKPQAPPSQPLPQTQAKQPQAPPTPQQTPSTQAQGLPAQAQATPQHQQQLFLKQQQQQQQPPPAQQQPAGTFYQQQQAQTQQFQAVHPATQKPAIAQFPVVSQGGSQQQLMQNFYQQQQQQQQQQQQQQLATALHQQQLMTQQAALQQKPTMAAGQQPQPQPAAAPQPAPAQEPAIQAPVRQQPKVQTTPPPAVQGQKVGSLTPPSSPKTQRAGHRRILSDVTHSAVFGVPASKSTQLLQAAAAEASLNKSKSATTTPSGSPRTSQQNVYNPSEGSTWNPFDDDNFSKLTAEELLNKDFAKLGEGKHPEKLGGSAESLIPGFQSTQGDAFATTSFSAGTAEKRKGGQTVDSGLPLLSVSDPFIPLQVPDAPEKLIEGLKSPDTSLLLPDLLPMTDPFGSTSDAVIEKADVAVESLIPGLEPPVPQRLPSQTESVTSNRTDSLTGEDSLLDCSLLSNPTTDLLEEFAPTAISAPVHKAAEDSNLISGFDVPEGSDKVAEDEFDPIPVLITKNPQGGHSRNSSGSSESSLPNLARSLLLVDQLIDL

Compound	IC50
N#Cc1cc(C(N)C2CCCCC2)nc2ccc(-c3ccncc3)cc12 (centres unmarked) [Example 41, 2-(amino(cyclohexyl)methyl)-6-(pyridin-4-yl)quinoline-4-carbonitrile]	101 to 2500 nM
CC(C)CC(N)c1ccc2cc(-c3ccnc(NC(=O)c4ccc(C(F)(F)F)cc4)c3)ccc2n1 (centres unmarked) [Example 42, N-(4-(2-(1-amino-3-methylbutyl)quinolin-6-yl)pyridin-2-yl)-4-(trifluoromethyl)benzamide]	11 to 100 nM
CC(C)CC(N)c1cc(C#N)c2cc(-c3ccncc3)cc(F)c2n1 (centres unmarked) [Example 44, 2-(1-amino-3-methylbutyl)-8-fluoro-6-(pyridin-4-yl)quinoline-4-carbonitrile]	11 to 100 nM
CC(=O)Nc1cc(-c2ccc3nc(C(O)CC(C)C)ccc3c2)ccn1 (centres unmarked) [Example 45, N-(4-(2-(1-hydroxy-3-methylbutyl)quinolin-6-yl)pyridin-2-yl)acetamide]	11 to 100 nM
CC(C)CC(N)c1ccc2cc(-c3ccnc(C4CC4)c3)ccc2n1 (centres unmarked) [Example 50, 1-(6-(2-cyclopropylpyridin-4-yl)quinolin-2-yl)-3-methylbutan-1-amine]	101 to 2500 nM
